In brackets after ≈: the same amount, converted by molar mass.
Assays:
Assay type in all cases: functional
Settings in all cases: 120 h
[1] = system: Mycobacterium tuberculosis; test: Antituberculosis activity against Mycobacterium tuberculosis H37Rv assessed as complete growth inhibition at 20 uM after 5 days
[2] = system: Mycobacterium tuberculosis; test: Antituberculosis activity against Mycobacterium tuberculosis H37Rv assessed as complete growth inhibition after 5 days
[3] = system: Mycobacterium tuberculosis; test: Antituberculosis activity against Mycobacterium tuberculosis H37Rv assessed as complete growth inhibition after 5 days using solid media by serial proportion method
[4] = system: Mycobacterium tuberculosis; test: Antituberculosis activity against Mycobacterium tuberculosis H37Rv assessed as complete growth inhibition after 5 days using liquid media

Fc1ccc(CNc2nc(N3CCCCC3)nc3[nH]ccc23)cc1
inhibition at 20 µM [1]: < 30%

Fc1ccc(CSc2nc(N3CCCCC3)nc3ccccc23)cc1
inhibition at 20 µM [1]: < 30% | MIC99 [2]: 282 µM (≈ 99.7 µg/mL)

CNc1nc(N2CCCCC2)nc2ccccc12
inhibition at 20 µM [1]: < 30% | MIC99 [2]: 206 µM (≈ 49.9 µg/mL)

CNc1nc(NCc2ccc(F)cc2)c2ccccc2n1
inhibition at 20 µM [1]: 44% | MIC99 [2]: 35 µM (≈ 9.88 µg/mL)

Fc1ccc(CNc2nc(N3CCCCC3)nc3cccc(Cl)c23)cc1
inhibition at 20 µM [1]: < 30%

Cc1ccc(CNc2nc(N3CCCCC3)nc3ccccc23)cc1
inhibition at 20 µM [1]: 98%

Fc1ccc(Nc2nc(N3CCCCC3)nc3ccccc23)cc1
inhibition at 20 µM [1]: < 30% | MIC99 [2]: 39 µM (≈ 12.6 µg/mL)

Fc1ccc(CNc2nc(N3CCCCC3)nc3sccc23)cc1
MIC99 [2]: 73 µM (≈ 25 µg/mL)

Cc1cccc(CNc2nc(N3CCCCC3)nc3ccccc23)c1
inhibition at 20 µM [1]: 99%

Cc1ccc2nc(N3CCCCC3)nc(NCc3ccc(F)cc3)c2c1
inhibition at 20 µM [1]: 99%

Clc1ccc(CNc2nc(N3CCCCC3)nc3ccccc23)cc1
inhibition at 20 µM [1]: 99%

Fc1ccc(CNc2nc(CN3CCCCC3)nc3ccccc23)cc1
inhibition at 20 µM [1]: < 30% | MIC99 [2]: 29 µM (≈ 10.2 µg/mL)

Fc1ccc(CNc2nc(N3CCCCC3)ncc2Cc2ccccc2)cc1
inhibition at 20 µM [1]: 68% | MIC99 [2]: 26 µM (≈ 9.79 µg/mL)

OCCN(CCO)c1nc(NCc2ccc(F)cc2)c2ccccc2n1
inhibition at 20 µM [1]: < 30%

c1ccc2nc(N3CCCCC3)ncc2c1
inhibition at 20 µM [1]: < 30% | MIC99 [2]: 469 µM (≈ 100 µg/mL)

O=C(O)CNC1CCN(c2nc(NCc3ccc(F)cc3)c3ccccc3n2)CC1
inhibition at 20 µM [1]: < 30%

Fc1ccc(CCc2nc(N3CCCCC3)nc3ccccc23)cc1
inhibition at 20 µM [1]: < 30%

COc1ccc2c(NCc3ccc(F)cc3)nc(N3CCCCC3)nc2c1
inhibition at 20 µM [1]: 74%

Cc1nc(NCc2ccc(F)cc2)c2ccccc2n1
inhibition at 20 µM [1]: < 30% | MIC99 [2]: 94 µM (≈ 25.1 µg/mL)

Nc1nc(NCc2ccc(F)cc2)c2ccccc2n1
inhibition at 20 µM [1]: < 30% | MIC99 [2]: 93 µM (≈ 25 µg/mL)

Fc1ccc(CNc2nc(N3CCCCC3)nc3ccc(Cl)cc23)cc1
inhibition at 20 µM [1]: 49%

CC1CC(C)CN(c2nc(NCc3ccc(F)cc3)c3ccccc3n2)C1 (stereo not given)
inhibition at 20 µM [1]: < 30%

Clc1ccc(CNc2nc(N3CCCCC3)nc3ccccc23)c(Cl)c1
inhibition at 20 µM [1]: 98%

Fc1ccc(CNc2ncnc3ccccc23)cc1
inhibition at 20 µM [1]: < 30% | MIC99 [2]: 99 µM (≈ 25.1 µg/mL)

Fc1ccc(CNc2nc(N3CCCCC3)nc3c(Cl)cccc23)cc1
inhibition at 20 µM [1]: < 30%

Fc1ccc(CNc2nc(C3CCCCC3)nc3ccccc23)cc1
inhibition at 20 µM [1]: 47% | MIC99 [2]: 15 µM (≈ 5.03 µg/mL)

Fc1ccc(CNc2nc(N3CCCCC3)nc3ccccc23)cc1F
inhibition at 20 µM [1]: 96%

Fc1cccc(CNc2nc(N3CCCCC3)nc3ccccc23)c1
inhibition at 20 µM [1]: 98%

O=C(O)CC1CCCCN1c1nc(NCc2ccc(F)cc2)c2ccccc2n1 (stereo not given)
inhibition at 20 µM [1]: < 30%

FC(F)(F)c1ccc(CCNc2nc(N3CCCCC3)nc3ccccc23)cc1
inhibition at 20 µM [1]: 97% | MIC99 [2]: 5.7 µM (≈ 2.28 µg/mL)

COc1ccc(CNc2nc(N3CCCCC3)nc3ccccc23)cc1Cl
inhibition at 20 µM [1]: 98%

CC1CCN(c2nc(NCc3ccc(F)cc3)c3ccccc3n2)CC1
inhibition at 20 µM [1]: 97%

Cn1cnc2c(NCc3ccc(F)cc3)nc(N3CCCCC3)nc21
inhibition at 20 µM [1]: < 30%

CN(C)c1nc(NCc2ccc(F)cc2)c2ccccc2n1
inhibition at 20 µM [1]: 40% | MIC99 [2]: 34 µM (≈ 10.1 µg/mL)

Fc1ccc2c(c1)CCN(c1nc(N3CCCCC3)nc3ccccc13)C2
inhibition at 20 µM [1]: 94%

c1ccc2c(NCC3CCCCC3)nc(N3CCCCC3)nc2c1
inhibition at 20 µM [1]: 99%

CC(C)CNc1nc(N2CCCCC2)nc2ccccc12
inhibition at 20 µM [1]: 37% | MIC99 [2]: 25 µM (≈ 7.11 µg/mL)

Fc1ccc(CNc2nc(C(F)(F)F)nc3ccccc23)cc1
inhibition at 20 µM [1]: < 30%

Fc1ccc(CNc2nc(N3CCCCC3)nc3ccccc23)c(F)c1
inhibition at 20 µM [1]: 97%

Ic1cccc(CNc2nc(N3CCCCC3)nc3ccccc23)c1
inhibition at 20 µM [1]: 98%

OCC(Nc1cc(N2CCCCC2)nc2ccccc12)c1ccc(F)cc1 (stereo not given)
inhibition at 20 µM [1]: 55%

Fc1ccc(CNc2nc(N3Cc4ccccc4C3)nc3ccccc23)cc1
inhibition at 20 µM [1]: 78%

NC1CCN(c2nc(NCc3ccc(F)cc3)c3ccccc3n2)CC1
inhibition at 20 µM [1]: < 30%

Fc1ccc(COc2nc(N3CCCCC3)nc3ccccc23)cc1
inhibition at 20 µM [1]: < 30% | MIC99 [2]: 296 µM (≈ 99.9 µg/mL)

COc1ccc2nc(N3CCCCC3)nc(NCc3ccc(F)cc3)c2c1
inhibition at 20 µM [1]: 97%

O=C(O)C(Nc1cc(N2CCCCC2)nc2ccccc12)c1ccc(F)cc1 (stereo not given)
inhibition at 20 µM [1]: < 30%

Fc1ccc(CNc2cc(N3CCCCC3)nc3ccccc23)cc1
inhibition at 20 µM [1]: 98%

Nc1ccc(N2CCN(c3nc(NCc4ccc(F)cc4)c4ccccc4n3)CC2)cc1
inhibition at 20 µM [1]: 94%

CNC1CCN(c2nc(NCc3ccc(F)cc3)c3ccccc3n2)CC1
inhibition at 20 µM [1]: 33%

Clc1ccc(Cl)c(CNc2nc(N3CCCCC3)nc3ccccc23)c1
inhibition at 20 µM [1]: 97%

c1ccc2c(N3CCCCC3)nc(N3CCCCC3)nc2c1
inhibition at 20 µM [1]: < 30%

Fc1ccc(CNc2cc(Cc3ccccc3)nc(N3CCCCC3)n2)cc1
inhibition at 20 µM [1]: 84% | MIC99 [2]: 27 µM (≈ 10.2 µg/mL)

Cc1cccc2nc(N3CCCCC3)nc(NCc3ccc(F)cc3)c12
inhibition at 20 µM [1]: 98%

Cc1cnc(N2CCCCC2)nc1NCc1ccc(F)cc1
inhibition at 20 µM [1]: < 30% | MIC99 [2]: 83 µM (≈ 24.9 µg/mL)

Fc1ccc(CNc2nc(N3CCCCC3)nc3cnccc23)cc1
inhibition at 20 µM [1]: 59% | MIC99 [2]: 30 µM (≈ 10.1 µg/mL)

COc1cc2nc(N3CCCCC3)nc(NCc3ccc(F)cc3)c2cc1OC
inhibition at 20 µM [1]: 92% | MIC99 [2]: 25 µM (≈ 9.91 µg/mL)

Cn1ccc2c(NCc3ccc(F)cc3)nc(N3CCCCC3)nc21
inhibition at 20 µM [1]: < 30%

Fc1ccc(CNc2nc(N3CCNCC3)nc3ccccc23)cc1
inhibition at 20 µM [1]: < 30% | MIC99 [2]: 148 µM (≈ 49.9 µg/mL)

OCC1CCN(c2nc(NCc3ccc(F)cc3)c3ccccc3n2)CC1
inhibition at 20 µM [1]: < 30%

Fc1ccc(CNc2nc(N3CCCCC3)nc3cccnc23)cc1
inhibition at 20 µM [1]: < 30% | MIC99 [2]: 37 µM (≈ 12.5 µg/mL)

FC(F)(F)Oc1ccc(CNc2nc(N3CCCCC3)nc3ccccc23)cc1
inhibition at 20 µM [1]: 95%

CN(C)C1CCN(c2nc(NCc3ccc(F)cc3)c3ccccc3n2)CC1
inhibition at 20 µM [1]: < 30%

Fc1ccc(CNc2cc(N3CCCCC3)nc3ncnn23)cc1
inhibition at 20 µM [1]: < 30%

Clc1ccc(CNc2nc(N3CCCCC3)nc3ccccc23)cc1Cl
inhibition at 20 µM [1]: 98%

Fc1ccc(CNc2nc(N3CCCCC3)nc3cc(Cl)ccc23)cc1
inhibition at 20 µM [1]: 51%

c1ccc(CNc2nc(N3CCCCC3)nc3ccccc23)cc1
inhibition at 20 µM [1]: 96% | MIC99 [2]: 9.2 µM (≈ 2.93 µg/mL)

OC1CCN(c2nc(NCc3ccc(F)cc3)c3ccccc3n2)CC1
inhibition at 20 µM [1]: < 30%

Fc1ccc(CNc2nc(N3CCCC3)nc3ccccc23)cc1
inhibition at 20 µM [1]: 97% | MIC99 [2]: 31 µM (≈ 9.99 µg/mL)

CO[C@H]1/C=C/O[C@@]2(C)Oc3c(C)c(O)c4c(O)c(c(/C=N/N5CCN(C)CC5)c(O)c4c3C2=O)NC(=O)/C(C)=C\C=C\[C@H](C)[C@H](O)[C@@H](C)[C@@H](O)[C@@H](C)[C@H](OC(C)=O)[C@@H]1C [RIFAMPIN]
inhibition at 20 µM [1]: 100% | MIC99 [3]: 0.013 µM (≈ 0.0107 µg/mL) | MIC99 [4]: 0.004 µM (≈ 0.00329 µg/mL)

COc1cccc2c(NCc3ccc(F)cc3)nc(N3CCCCC3)nc12
inhibition at 20 µM [1]: 83%

Nc1ccc(CNc2nc(N3CCCCC3)nc3ccccc23)cc1
inhibition at 20 µM [1]: < 30%

Fc1ccc(CNc2cc(N3CCCCC3)nc3ccnn23)cc1
inhibition at 20 µM [1]: < 30%

O=[N+]([O-])c1cccc2c(NCc3ccc(F)cc3)nc(N3CCCCC3)nc12
inhibition at 20 µM [1]: < 30%

Cc1cc(NCc2ccc(F)cc2)nc(N2CCCCC2)n1
inhibition at 20 µM [1]: < 30% | MIC99 [2]: 83 µM (≈ 24.9 µg/mL)

Fc1ccccc1CNc1nc(N2CCCCC2)nc2ccccc12
inhibition at 20 µM [1]: 97%

Fc1ccc(CNc2nc(N3CCCCC3)nc3ncccc23)cc1
inhibition at 20 µM [1]: 37% | MIC99 [2]: 74 µM (≈ 25 µg/mL)

Fc1ccc(CNc2nc(N3CCCCC3)nc3ccccc23)cc1
inhibition at 20 µM [1]: 97% | MIC99 [2]: 7.4 µM (≈ 2.49 µg/mL)

Fc1ccc(CNc2nc(N3CCCCC3)nc3[nH]cnc23)cc1
inhibition at 20 µM [1]: < 30%

Fc1ccc(CNc2nc(N3CCCCC3)nc3ccsc23)cc1
inhibition at 20 µM [1]: < 30% | MIC99 [2]: 292 µM (≈ 100 µg/mL)

Cc1nc(N2CCCCC2)nc(NCc2ccc(F)cc2)c1C
inhibition at 20 µM [1]: < 30%

O=C(O)C1CCN(c2nc(NCc3ccc(F)cc3)c3ccccc3n2)CC1
inhibition at 20 µM [1]: < 30%

COc1ccc(CNc2nc(N3CCCCC3)nc3ccccc23)cc1
inhibition at 20 µM [1]: 97%

c1ccc2c(CNc3nc(N4CCCCC4)nc4ccccc34)cccc2c1
inhibition at 20 µM [1]: 97%

Fc1ccc(CNc2nc(-c3ccccc3)nc3ccccc23)cc1
inhibition at 20 µM [1]: < 30% | MIC99 [2]: 76 µM (≈ 25 µg/mL)

Fc1ccc(CNc2nc(N3CCCCC3)nc3cccc(F)c23)cc1
inhibition at 20 µM [1]: < 30%
